Experimental data as given in US12582727B2, “Chemiluminescent and fluorescent nanoparticle for optical imaging of cancer” (priority 2018, dated 2026).

Assays:
[1] = test system: liver, lungs, kidney, heart, and spleen; assay: Histology (H&E) of internal organs for toxicity; format: in vivo; settings: compared to control (non-treated) group, 2 days post-intravenous injection
Procedure: After euthanizing mice with carbon dioxide gas, the internal organs (liver, kidney, spleen, heart, and lung) and tumor tissue were extracted and photographed using IVIS imaging. In addition, tumor tissues were excised from the mice at 2 days post-intravenous injection of free-Ce6, GCCe6, FA-GCCe6, CNP and FA-CNP (0.1 mL equivalent Ce6 concentration of 1.34×10^−5 mol/kg body weight) fixed with 10% Neutral Buffered Formalin solution, and embedded in paraffin, followed by sectioning. The sliced internal organs (5 μm in thickness) were stained with hematoxylin and eosin (H&E) and observed under an optical microscope. In addition, sliced tumor tissues were determined their FL and CL imaging under a confocal laser scanning microscope (Zeusis Nikon, Tokyo, Japan).

[2] = test system: NOK (Normal oral keratinocyte); assay: Cellular uptake, NOK cells (FRα-negative); format: cell-based; settings: 1 and 3 hours of incubation, comparison among samples
Procedure: The cell internalization of CNPs was characterized by a fluorescence microscopy. As shown in FIGS. 14A and 14B, the CNPs quickly enter into NOK and MOC2 cells. […] Through the cellular uptake study, it was confirmed that CNPs efficiently enter into the cells within 1 hour.
To evaluate the cellular uptake, NOK (Normal oral keratinocyte) and MOC2 (immunogenic murine squamous cell carcinoma) cells were used as folate receptor alpha (FRα)-negative and -positive cells, respectively (FIGS. 15A and 15B).
For visualization of the cellular uptake, the NOK and MOC2 cells in each well were treated with free-Ce6, GCCe6, FA-GCCe6, CNP and FA-CNP and then subjected to DAPI staining. […] The fluorescence images matched to the corresponding data in FIGS. 15A and 15B. The enhancement of the cellular uptake is attributed to the presence of FA facilitating receptor-mediated endocytosis.

chlorin e6 [free-Ce6]
toxicity in H&E stained internal organs [1]: no significant cellular toxicity
cellular uptake amount [2]: no significant difference
